From PubChem BioAssay AID2060507 (Molecular Pharmacology Branch, DTP, NCI, 2025)

Test system: 519858-162-T-J1-PDC complex spheroid viability
Assay: Anticancer human tumor 519858-162-T-J1-PDC patient-derived colon adenocarcinoma cell line growth inhibition [GQUAD]
Details: for IC50: curve of first compound; for viability, T/C: stronger effect = lower value
Summary of the method: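 Viability of tumor cells grown as complex spheroids with endothelial and stromal cells, exposed to drug combinations. Top concentration at or near clinical Cmax (else 10 microM), diluted in half-log increments.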

[1] = second compound 0.0316 µM, first compound 0.0316 µM
[2] = second compound 0.0316 µM, first compound 0.1 µM
[3] = second compound 0.0316 µM, first compound 0.316 µM
[4] = second compound 0.0316 µM, first compound 1 µM
[5] = second compound 0.0316 µM, first compound 3.16 µM
[6] = second compound 0.0316 µM, first compound 10 µM
[7] = second compound 0.1 µM, first compound 0.0316 µM
[8] = second compound 0.1 µM, first compound 0.1 µM
[9] = second compound 0.1 µM, first compound 0.316 µM
[10] = second compound 0.1 µM, first compound 1 µM
[11] = second compound 0.1 µM, first compound 3.16 µM
[12] = second compound 0.1 µM, first compound 10 µM
[13] = second compound 0.316 µM, first compound 0.0316 µM
[14] = second compound 0.316 µM, first compound 0.1 µM
[15] = second compound 0.316 µM, first compound 0.316 µM
[16] = second compound 0.316 µM, first compound 1 µM
[17] = second compound 0.316 µM, first compound 3.16 µM
[18] = second compound 0.316 µM, first compound 10 µM
[19] = second compound 1 µM, first compound 0.0316 µM
[20] = second compound 1 µM, first compound 0.1 µM
[21] = second compound 1 µM, first compound 0.316 µM
[22] = second compound 1 µM, first compound 1 µM
[23] = second compound 1 µM, first compound 3.16 µM
[24] = second compound 1 µM, first compound 10 µM
[25] = second compound 3.16 µM, first compound 0.0316 µM
[26] = second compound 3.16 µM, first compound 0.1 µM
[27] = second compound 3.16 µM, first compound 0.316 µM
[28] = second compound 3.16 µM, first compound 1 µM
[29] = second compound 3.16 µM, first compound 3.16 µM
[30] = second compound 3.16 µM, first compound 10 µM
[31] = second compound 10 µM, first compound 0.0316 µM
[32] = second compound 10 µM, first compound 0.1 µM
[33] = second compound 10 µM, first compound 0.316 µM
[34] = second compound 10 µM, first compound 1 µM
[35] = second compound 10 µM, first compound 3.16 µM
[36] = second compound 10 µM, first compound 10 µM
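For viability, T/C in this document: 100% = DMSO vehicle control viability.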

In the case of `C#Cc1c(F)ccc2cc(O)cc(-c3ncc4c(N5CC6CCC(C5)N6)nc(OCC56CCCN5CC(F)C6)nc4c3F)c12` (centres undefined) + Cc1[nH]c2ccc(F)cc2c1-c1nc2c3cccnc3c3ncccc3c2[nH]1, the IC50 (second compound 0.0316 µM) is reported as > 10 µM, the IC50 (second compound 0.1 µM) is reported as > 10 µM and the IC50 (second compound 0.316 µM) is reported as > 10 µM. The IC50 (second compound 1 µM) was > 10 µM, the IC50 (second compound 3.16 µM) was > 10 µM and the IC50 (second compound 10 µM) was > 10 µM. For the same molecule, the viability, T/C [1] was 103%, the viability, T/C [2] was 82.9% and the viability, T/C [3] was 92%. It also gave a viability, T/C [4] of 113%, a viability, T/C [5] of 72.3% and a viability, T/C [6] of 73.2%. The viability, T/C [7] was 111%, the viability, T/C [8] was 85.9% and the viability, T/C [9] was 126%. For the same molecule, the viability, T/C [10] was 83.9%, the viability, T/C [11] was 68.3% and the viability, T/C [12] was 73%. The viability, T/C [13] was 104%, the viability, T/C [14] was 112% and the viability, T/C [15] was 87.5%. It also gave a viability, T/C [16] of 75.7%, a viability, T/C [17] of 106% and a viability, T/C [18] of 66.1%. The viability, T/C [19] was 79.4%, the viability, T/C [20] was 73.9% and the viability, T/C [21] was 104%. The viability, T/C [22] was 60.4%, the viability, T/C [23] was 106% and the viability, T/C [24] was 58.5%. It also gave a viability, T/C [25] of 86.5%, a viability, T/C [26] of 80% and a viability, T/C [27] of 79.7%. The viability, T/C [28] was 52.6%, the viability, T/C [29] was 76.7% and the viability, T/C [30] was 80.3%. The viability, T/C [31] was 78.3%, the viability, T/C [32] was 83.2% and the viability, T/C [33] was 76.3%. It also gave a viability, T/C [34] of 63.5%, a viability, T/C [35] of 52.3% and a viability, T/C [36] of 65.6%.

`CCCS(=O)(=O)Nc1ccc(F)c(C(=O)c2c[nH]c3ncc(-c4ccc(Cl)cc4)cc23)c1F` + Cc1[nH]c2ccc(F)cc2c1-c1nc2c3cccnc3c3ncccc3c2[nH]1 was tested, and the IC50 (second compound 0.0316 µM) was > 10 µM, the IC50 (second compound 0.1 µM) was > 10 µM and the IC50 (second compound 0.316 µM) was > 10 µM. For the same molecule, the IC50 (second compound 1 µM) was > 10 µM, the IC50 (second compound 3.16 µM) was 7 µM and the IC50 (second compound 10 µM) was > 10 µM. The viability, T/C [1] was 90.7%, the viability, T/C [2] was 92% and the viability, T/C [3] was 83.7%. For the same molecule, the viability, T/C [4] was 129%, the viability, T/C [5] was 135% and the viability, T/C [6] was 101%. For the same molecule, the viability, T/C [7] was 103%, the viability, T/C [8] was 119% and the viability, T/C [9] was 97.9%. For the same molecule, the viability, T/C [10] was 113%, the viability, T/C [11] was 87.6% and the viability, T/C [12] was 107%. The viability, T/C [13] was 101%, the viability, T/C [14] was 116% and the viability, T/C [15] was 108%. It also gave a viability, T/C [16] of 75.4%, a viability, T/C [17] of 112% and a viability, T/C [18] of 119%. It also gave a viability, T/C [19] of 62.5%, a viability, T/C [20] of 74.1% and a viability, T/C [21] of 99.3%. The viability, T/C [22] was 99.2%, the viability, T/C [23] was 115% and the viability, T/C [24] was 101%. The viability, T/C [25] was 86.3%, the viability, T/C [26] was 51.3% and the viability, T/C [27] was 81.9%. The viability, T/C [28] was 72%, the viability, T/C [29] was 86% and the viability, T/C [30] was 38.7%. The viability, T/C [31] was 79.8%, the viability, T/C [32] was 53.7% and the viability, T/C [33] was 60.8%. It also gave a viability, T/C [34] of 89.2%, a viability, T/C [35] of 105% and a viability, T/C [36] of 109%.
